Biological target: T1, α7 nicotinic ACh receptor ion channel expressed in mammalian HEK 293 cells (Rattus norvegicus, UniProt Q05941)
T1 construct: expressed in transfected cells
Assay: Ca2+-sensitive fluorescence-based assay for α7 nicotinic acetylcholine receptor channel function (FLIPR), agonist activity
Type: cell-based
Conditions: HEK 293 cells, Ca2+ flux
Description: II) A Ca^2+-Sensitive, Fluorescence-Based Assay α-7 for Nicotinic Acetylcholine Receptor Channel Function in Mammalian Cells (“FLIPR”).
Lead compounds are evaluated for agonist activity at the α7 nicotinic ACh receptor ion channel expressed in mammalian HEK 293 cells. Agonist potency and efficacy values are determined from kinetic fluorescence Ca^2+ influx measurements made using a 384 well FLIPR (Fluorescence Image Plate Reader). The utility of fluorescent indicators for measuring changes in intracellular divalent cation concentrations, particularly Ca^2+, for drug discovery endeavors is well documented (Rudiger, R., et al., Nature Reviews, 2003, 4:579-586; Gonzalez J. E., et al., Receptors and Channels, 2002, 8:283-295). In this assay, channel expressing HEK cell lines seeded in 384 well assay plates are loaded with a membrane permeant fluorescent Ca^2+ indicator dye, whose 510 nm green emission signal increases in response to elevation of intracellular Ca^2+ concentration. The basal fluorescence from the cells is monitored in real time, followed by the acute addition of test compounds. If the compound is an agonist at any of the non-selective cation channels, the latter open and allow the movement of extracellular Ca^2+ ions into the cell cytoplasm, where they bind to the Ca^2+ indicator dye, and produce an increase in fluorescence output signal, which is detected by a cooled CCD imaging camera.
Reagents: The acetomethoxy (AM) ester of the Ca^2+ indicator dye Fluo-4 was obtained from InVitrogen, (Carlsbad, Calif.). Acetylcholine and all buffer constituents were purchased from Sigma Chemical Company, St. Louis, Mo. G418 and Minimal Essential Medium were purchased from InVitrogen Life Technologies, Carlsbad, Calif. Fetal bovine serum was purchased from (InVitrogen, Carlsbad, Calif.).
HEK-293 cells were grown in Minimal Essential Medium containing 10% (v/v) fetal bovine serum at 37° C. in a 5% CO2 incubator. HEK-293 cells stably expressing the ion channels were grown in the same medium with the addition of 500 μg/ml G418.
HEK-293 cells expressing the ion channels of interest were plated in 384 well, black-walled, clear-bottomed, poly-D-lysine coated plates at a density of ˜20,000 cells/well in 20 μl of Minimal Essential Medium containing 10% (v/v) fetal bovine serum and incubated for 2 days at 29° C. in a 5% CO2 incubator. Prior to assay, cells were loaded with the Fluo-4 AM ester. Cell loading was accomplished by removing the culture medium and replacing it with 30 μl/well of the AM ester of the dye (5 μM) mixed with Hanks Balanced Salt Solution (#14175-095) containing 20 mM HEPES, 2.5 mM probenecid, 0.5 mM CaCl2, 1 mM MgCl2 and 10 μM atropine. Dye loading was allowed to proceed for 90 minutes at room temperature at which time the dye loading solution was removed and replaced with 40 μl/well of Hanks buffer. Cells loaded with dye were loaded onto a FLIPR384 (Molecular Devices, Sunnyvale, Calif.). Fluo-4 dye was excited using the 488 nm line of an argon laser. Emission was filtered using a 540+/−30 nm bandpass filter. For evaluation of the effects of test compounds using the Ca^2+ flux assay, compounds to be tested were provided in assay ready plates. For nicotinic receptor ion channel expressing cells, the assay was initiated by the addition of 20 μl/well of Hanks buffer containing test compounds. For all assays, data were collected at 1 Hz for 10 seconds (baseline), at which time the compound containing stimulus buffers are added, and further measurements collected at 0.33 Hz for 3 min.
The statistical robustness of the nicotinic receptor Ca^2+ flux assays is determined from blanks and totals wells. The totals wells define maximal channel activation for each compound test plate (Maximum efficacious dose of acetylcholine), and the blanks wells which contain matched DMSO only, define zero channel activation. […]

[1] = FLIPR α7 (EC50, nM), agonist potency
[2] = FLIPR α7 activity rating (EC50, nM), class rating of EC50

T1 sequence (Q05941 23-502): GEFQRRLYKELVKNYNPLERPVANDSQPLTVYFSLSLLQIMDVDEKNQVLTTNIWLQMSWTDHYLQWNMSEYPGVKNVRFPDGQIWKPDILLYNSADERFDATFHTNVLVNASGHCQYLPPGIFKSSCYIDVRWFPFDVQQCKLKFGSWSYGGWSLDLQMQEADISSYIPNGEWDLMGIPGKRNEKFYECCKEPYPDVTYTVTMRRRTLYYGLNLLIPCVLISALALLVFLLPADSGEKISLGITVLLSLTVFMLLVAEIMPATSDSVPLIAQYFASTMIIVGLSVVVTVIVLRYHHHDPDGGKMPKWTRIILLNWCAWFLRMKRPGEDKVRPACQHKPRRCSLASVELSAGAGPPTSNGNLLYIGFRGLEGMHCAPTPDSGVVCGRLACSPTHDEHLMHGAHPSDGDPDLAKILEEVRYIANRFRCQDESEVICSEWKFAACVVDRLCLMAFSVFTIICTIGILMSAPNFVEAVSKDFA

c1cncc(-c2ccc3c(c2)nc2n3C[C@@]3(CN4CCC3CC4)O2)c1 (single isomer, unassigned) [Example 13b] showed an EC50 [1] of 634 nM and an EC50 [2] of 100 to 1000 nM.

Cc1nc2n(c1Br)CC1(CN3CCC1CC3)O2 (racemic) [Example 3a, 5-Bromo-6-methyl-3H-1′-azaspiro[imidazo[2,1-b]oxazole-2,3′-bicyclo[2.2.2]octane]] was tested, and the EC50 [1] was 36.1 nM and the EC50 [2] was under 100 nM.

— patent publication US10174052B2, “Quinuclidine compounds as α-7 nicotinic acetylcholine receptor ligands” (BRISTOL-MYERS SQUIBB COMPANY, priority 2014, dated 2019)
